In patent publication US10131679B2, “Substituted dihydropyrrolopyrazole compound” (UBE INDUSTRIES, LTD., priority 2014, dated 2018):

Tests used:
[1] = tested on: IL-2 production in human peripheral blood mononuclear cell (PBMC); test: Human PBMC CD3/CD28-induced IL-2 production inhibition test; type: cell-based; details: 48 h, CD3/CD28 stimulation, incubation for 2 days, ELISA
How it was run: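 Healthy-donor PBMC were stimulated with compound for 2 days on anti-CD3-coated plates with anti-CD28 (2 μg/mL in medium before cell addition), in RPMI1640/10% FBS with 0.1% DMSO final. Supernatant IL-2 was measured by sandwich ELISA; IC50 (nM) came from inhibition relative to DMSO-only stimulated wells.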

[2] = tested on: IL-17 production in human PBMC-derived T cells; test: Human PBMC various-stimulant cocktail-induced IL-17 production inhibition test; type: cell-based; details: 120 h; human T-cell suspension from PBMC, cocktail of various stimulants, incubation for 5 days, ELISA
From the text: Human PBMC Various-Stimulant Cocktail-Induced IL-17 Production Inhibition Test
PBMC was separated and collected by using Ficoll-Paque (17-1440-02 manufactured by GE Healthcare Japan Corp.) from blood collected from healthy human adult in the presence of heparin. The collected PBMC was further cultured in a flask for a certain time, and then, non-adherent cells in the supernatant were collected and used as a T-cell suspension. RPMI1640 medium (manufactured by GIBCO/Thermo Fisher Scientific, Inc., REF. 11875), which is containing 10% FBS (manufactured by GIBCO/Thermo Fisher Scientific, Inc., REF. 10082), 1% penicillin/streptomycin/amphotericin B (manufactured by GIBCO/Thermo Fisher Scientific, Inc., REF. 15240-096), 1% nonessential amino acids (manufactured by GIBCO/Thermo Fisher Scientific, Inc., REF. 11140-050), and 1% pyruvic acid (manufactured by GIBCO/Thermo Fisher Scientific, Inc., REF. 11140) and containing a test compound dissolved in DMSO, 2 μg/mL (final concentration) CD28 antibody (manufactured by BioLegend, Inc., Cat. No. 302914), 10 μg/mL (final concentration) human IFN-γ antibody (manufactured by BD Biosciences, Cat. No. 554698), 10 μg/mL (final concentration) human IL-4 antibody (manufactured by BD Biosciences, Cat. No. 554481), 20 ng/mL (final concentration) human IL-6 (manufactured by BioLegend, Inc., Cat. No. 570802), 10 ng/mL (final concentration) human IL-23 (manufactured by BioLegend, Inc., Cat. No. 574102), 10 ng/mL (final concentration) human IL-1(3 (manufactured by PeproTech Inc., Cat. No. 200-01B), and 10 ng/mL (final concentration) human TGF-13 (manufactured by BioLegend, Inc., Cat. No. 580702), was added at 100 μL/well to T cell Activation Plate Anti-Human CD3 96-well plate (manufactured by Corning Inc., REF. 354725). Subsequently, 100 μL of a T-cell suspension adjusted to 2×10^5 cells/mL was added to each well (final DMSO concentration: 0.1%). Only DMSO was added to wells in the absence of the test compound. After incubation for 5 days in a carbon dioxide incubator, the culture supernatant was collected and stored at −20° C. until IL-17 content measurement.
In the IL-17 content measurement in the culture supernatant, a sandwich ELISA kit (Quantikine Human IL-17, manufactured by R&D Systems, Inc.) was used. The IL-17 content of each sample was calculated from the calibration curve of Standard IL-17 included in the kit. When the amount of IL-17 produced by the cocktail of various stimulants in the case of the addition of only DMSO was defined as 100%, the rate of inhibition of IL-17 production at each concentration of the test compound was calculated. The concentration of the test compound necessary for inhibiting 50% of IL-17 production (IC50 value) was calculated from the concentration of the added test compound and the rate of inhibition of IL-17 production by the test compound by using EXSUS (version 8.0.0 or version 8.0.1, manufactured by CAC Exicare Corp.).

Structure (SMILES)	IC50 [1]	IC50 [2]
CC(C)(CO)C(NC(=O)N1Cc2c(NC(=O)C3([Si](C)(C)C)CCC3)n[nH]c2C1(C)C)c1ccccc1 (racemic) [IV-354, N-(3-Hydroxy-2,2-dimethyl-1-phenylpropyl)-6,6-dimethyl-3-[1-(trimethylsilyl)cyclobutanecarboxamido]-4,6-dihydropyrrolo[3,4-c]pyrazole-5(1H)-carboxamide]	≤ 50 nM	≤ 50 nM
CC(C)(O)C[C@@H](NC(=O)N1Cc2c(NC(=O)C3([Si](C)(C)C)CCC3)n[nH]c2C1(C)C)c1ccccc1 [IV-299, (R)—N-(3-Hydroxy-3-methyl-1-phenylbutyl)-6,6-dimethyl-3-[1-(trimethylsilyl)cyclobutanecarboxamido]-4,6-dihydropyrrolo[3,4-c]pyrazole-5(1H)-carboxamide]	≤ 50 nM	≤ 50 nM
CO[C@@H](C(=O)N1Cc2c(NC(=O)C3([Si](C)(C)C)CCC3)n[nH]c2C1(C)C)c1ccccc1 [IV-1175, (R)—N-[5-(2-Methoxy-2-phenylacetyl)-6,6-dimethyl-1,4,5,6-tetrahydropyrrolo[3,4-c]pyrazol-3-yl]-1-(trimethylsilyl)cyclobutanecarboxamide]	≤ 50 nM	≤ 50 nM
CC[Si](C)(C)C1(C(=O)Nc2n[nH]c3c2CN(C(=O)[C@H](OC)c2ccccc2)C3(C)C)CCC1 [IV-1178, (R)-1-(Ethyldimethylsilyl)-N-[5-(2-methoxy-2-phenylacetyl)-6,6-dimethyl-1,4,5,6-tetrahydropyrrolo[3,4-c]pyrazol-3-yl] cyclobutanecarboxamide]	≤ 50 nM	≤ 50 nM
CC1(C)c2[nH]nc(NC(=O)C3([Si](C)(C)C)CCC3)c2CN1C(=O)[C@H](OC(F)F)c1ccccc1 [IV-1180, (R)—N-{5-[2-(Difluoromethoxy)-2-phenylacetyl]-6,6-dimethyl-1,4,5,6-tetrahydropyrrolo[3,4-c]pyrazol-3-yl}-1-(trimethylsilyl)cyclobutanecarboxamide]	≤ 50 nM	≤ 50 nM
CCO[C@@H](C(=O)N1Cc2c(NC(=O)C3([Si](C)(C)C)CCC3)n[nH]c2C1(C)C)c1ccccc1 [IV-1188, (R)—N-[5-(2-Ethoxy-2-phenylacetyl)-6,6-dimethyl-1,4,5,6-tetrahydropyrrolo[3,4-c]pyrazol-3-yl]-1-(trimethylsilyl)cyclobutanecarboxamide]	≤ 50 nM	≤ 50 nM
CCCO[C@@H](C(=O)N1Cc2c(NC(=O)C3([Si](C)(C)C)CCC3)n[nH]c2C1(C)C)c1ccccc1 [IV-1196, (R)—N-[6,6-Dimethyl-5-(2-phenyl-2-propoxyacetyl)-1,4,5,6-tetrahydropyrrolo[3,4-c]pyrazol-3-yl]-1-(trimethylsilyl)cyclobutanecarboxamide]	–	≤ 50 nM
CC(C)O[C@@H](C(=O)N1Cc2c(NC(=O)C3([Si](C)(C)C)CCC3)n[nH]c2C1(C)C)c1ccccc1 [IV-1204, (R)—N-[5-(2-Isopropoxy-2-phenylacetyl)-6,6-dimethyl-1,4,5,6-tetrahydropyrrolo[3,4-c]pyrazol-3-yl]-1-(trimethylsilyl)cyclobutanecarboxamide]	–	≤ 50 nM
CC1(C)c2[nH]nc(NC(=O)C3([Si](C)(C)C)CCC3)c2CN1C(=O)[C@H](OC1CC1)c1ccccc1 [IV-1208, (R)—N-[5-(2-Cyclopropoxy-2-phenylacetyl)-6,6-dimethyl-1,4,5,6-tetrahydropyrrolo[3,4-c]pyrazol-3-yl]-1-(trimethylsilyl)cyclobutanecarboxamide]	–	≤ 50 nM
CO[C@@H](C(=O)N1Cc2c(NC(=O)C3([Si](C)(C)C)CCC3)n[nH]c2C1(C)C)c1ccccc1F [IV-1383, (R)—N-{5-[2-(2-Fluorophenyl)-2-methoxyacetyl]-6,6-dimethyl-1,4,5,6-tetrahydropyrrolo[3,4-c]pyrazol-3-yl}-1-(trimethylsilyl)cyclobutanecarboxamide]	–	≤ 50 nM
COC(C(=O)N1Cc2c(NC(=O)C3([Si](C)(C)C)CCC3)n[nH]c2C1(C)C)c1cccc(F)c1 (stereo not drawn) [IV-1404, N-{5-[2-(3-Fluorophenyl)-2-methoxyacetyl]-6,6-dimethyl-1,4,5,6-tetrahydropyrrolo[3,4-c]pyrazol-3-yl}-1-(trimethylsilyl)cyclobutanecarboxamide]	–	≤ 50 nM
COC(C(=O)N1Cc2c(NC(=O)C3([Si](C)(C)C)CCC3)n[nH]c2C1(C)C)c1cccs1 (stereo not drawn) [IV-1546, N-{5-[2-Methoxy-2-(thiophen-2-yl)acetyl]-6,6-dimethyl-1,4,5,6-tetrahydropyrrolo[3,4-c]pyrazol-3-yl}-1-(trimethylsilyl)cyclobutanecarboxamide]	–	≤ 50 nM
